The values that follow come from article PMC5352758, “Methods for 20S Immunoproteasome and 20S Constitutive Proteasome Determination Based on SPRI Biosensors” (Cellular and Molecular Bioengineering, 2017).

Where a SMILES comes first, the peptide text is derived from it. [ ]: non-standard residue; d: D form. hPhe = N[C@@H](CCc1ccccc1)C(=O)O; Nle = CCCC[C@H](N)C(=O)O

One test has as its target T1, 20Si (immunoproteasome) (Homo sapiens, UniProt P28062+P28065+P40306).
T1 construct: purchased www.vivabioscience.com (Basepoint Business Centre, United Kingdom)
The test is described as follows: SPRI measurement of ability of immobilized potential receptor to bind 20Si. It is filed as binding. To be noted: for Selectivity of binding 20Si vs 20Sc, in words (text summary of Table 4): 20Si or 20Sc 2.8 μg mL−1; for Ability to bind 20Si: receptor at 1, 10, 100 μg mL−1, 20Si 2.8 μg mL−1, SPRI signal increase of less than 20% = lack of ability to bind. As for the experimental part: (§1) Chips were immersed in an ethanolic solution 1-octadecanothiol (ODM) ([…]) for 24 h at room temperature. Then the biosensors have been repeatedly washed in ethanol and water, and dried under a stream of argon. Chips prepared in this way can be stored and used for subsequent measurements. […] After that time, the process of immobilization of the inhibitor by hydrophobic interaction was completed. A biosensor prepared in this way should be used directly for analysis. A diagram of the chip appears in Fig. 1a.
(§2) The chip was immersed in a vessel with an ethanolic solution of cysteamine for 2 h at room temperature. After 2 h, the chip was rinsed with ethanol and water and dried under a stream of argon. A chip prepared in this manner can be stored and used for subsequent measurements. Each of the synthesised inhibitor solutions was activated with NHS (250 mM) and EDC (250 mM) in the ratio 1: 1 and carbonate buffer (pH 8.5) as a suitable reaction medium. Next, 3 μL of this solution was placed on each of nine active sites on the amine-modified surface. The closed vessel with the biosensor and under appropriate conditions of humidity was incubated at 37 °C for 1 h. Next, the biosensor was rinsed with water and dried under a stream of argon. A biosensor prepared in this way should be used directly for testing and analysis.
(§3) SPRI measurements for the protein biosensor array were performed as described elsewhere.[8],[11] Briefly, the measurements were performed at a fixed angle of incident light and the reflectivity was simultaneously measured cross an entire chip surface. The contrast values obtained for all pixels across a particular sample single spot were integrated. The signal was measured twice on the basis of registered images, after immobilization of the inhibitor and after immunoproteasome interaction. The SPRI signal, which is proportional to the coupled protein, was obtained by subtraction between the signals before and after interaction with protein for each spot separately.
(§4) A background correction was applied i.e. some of the sites on the biosensor covered with PBS buffer were used as a control. Non-specific binding was monitored by measuring the SPRI signal at a site on the chip without the receptor (ligand). Minimization of non-specific binding was achieved by preparing samples in PBS buffer (NaCl an KCl concentration ~200 mM) at pH 7.4 near the isoelectric point of the protein.
(§5) A crucial factor for the application of newly synthesised potential receptors is their selectivity. Selectivity for 20Si or 20Sc was checked using SPRI measurements. […] Measurements were performed as described above at three different concentrations of potential receptors (1, 10, 100 μg mL^−1) at a fixed concentration of 20Si (2.8 μg mL^−1) or 20Sc (2.8 μg mL^−1). An increase in the SPRI signal of less than 20% was considered to imply lack of ability to bind 20Si or 20Sc.

In another test the target is T2, chymotrypsin (Bos taurus, UniProt P00766).
T2 construct: purchased Sigma (Schnelldorf, Germany)
The experiment in a line: Inhibition of amidolytic activity of chymotrypsin (chromogenic substrate). It counts as biochemical. To be noted: substrate Suc-Phe-pNA 8 mM, tris buffer pH 9.0, chymotrypsin 0.4 units mL−1, 3 min pre-incubation at 37 °C, 20 min incubation, absorbance 405 nm, average of triplicate. The protocol:
(§6) Determination of amidolytic activity was performed as described by Okada.[22] The synthetic amidolytic (chromogenic) substrates (Bzl-L-Arg-pNA.HCl for trypsin and Suc-Phe-pNA for chymotrypsin) are selected to give appropriate specificity for inhibition of the serine proteases. A chromophore (para-nitroaniline = pNA, yellow color) is cleaved from the C-terminus amide bond by the protease, and the absorbance can be detected.
(§7) A detailed description of the method is given below. The buffer and the enzyme solution contained: • […] buffer—0.5 mL (pH 7.5), enzyme: trypsin (0.4 units mL^−1), synthetic substrate: Bzl-L-Arg-pNA.HCl (0.2 mL, 8 mM); • tris buffer—0.6 mL (pH 9.0), enzyme: chymotrypsin (0.4 units mL^−1), synthetic substrate: Suc-Phe-pNA (0.2 mL, 8 mM).
(§8) The buffer and 0.1 mL of enzyme solution were added to 0.2 mL of the examined compound dissolved in 0.15 M NaCl (1–11) (as control 0.15 M NaCl). The mixture was incubated for 3 min at 37 °C, then the synthetic substrate was added. After 20 min of incubation, the reaction was stopped by adding 0.1 mL of 50% acetic acid, and the absorbance of the released p-nitroaniline was measured at 405 nm (Spekol 1300, Analytic Jena). Every value represents the average of triplicate determination. The IC50 value was taken as the concentration of the inhibitor which decreased the absorbance at 405 nm by 50% compared with the absorbance measured under the same conditions without the inhibitor.

The test system of another test is trypsin. The test is described as follows: Inhibition of amidolytic activity of trypsin (chromogenic substrate). It is filed as biochemical. To be noted: substrate Bzl-L-Arg-pNA.HCl 8 mM, borane buffer pH 7.5, trypsin 0.4 units mL−1, 3 min pre-incubation at 37 °C, 20 min incubation, absorbance 405 nm, average of triplicate. As for the experimental part:
as §6, §7, §8

For a further test, the target named is T3, 20Si (Homo sapiens, UniProt P28062+P28065+P40306).
T3 construct: purchased www.vivabioscience.com (Basepoint Business Centre, United Kingdom)
The experiment in a line: Specificity of SPRI biosensor: 20Si determination in the presence of an interferent. It is filed as binding. To be noted: added 20Si 2.80 μg mL−1; for Found 20Si: tripeptide as receptor via cysteamine linker, 20Sc 2.8 μg mL−1, ratio 20Si vs. 20Sc 1:1, 95% confidence limits, 12 measurements; for Recovery: tripeptide as receptor, 20Sc 2.8 μg mL−1, ratio 1:1. As for the experimental part: as §3, §4
The specificity of the developed biosensor, especially against 20Sc, is crucial factor for the device’s application. Specificity was investigated at different ratios of 20Si and 20Sc and various 20Si concentrations. Additionally, tolerance of human albumin was checked.
This investigation is crucial for the determination of 20Si in the presence of 20Sc. Series of model solutions containing both 20Si (2.8 μg mL^−1) and 20Sc (2.8 μg mL^−1) were determined using four developed biosensors specific for 20Si. The confidence limits of the results are a measure of measurement precision.

Test [1] concerns the target 20Sc (constitutive proteasome; commercially available proteasome) (Homo sapiens, UniProt P28072+P28074+Q99436). The test is described as follows: SPRI measurement of ability of immobilized potential receptor to bind 20Sc. To be noted: receptor at 1, 10, 100 μg mL−1, 20Sc 2.8 μg mL−1, SPRI signal increase of less than 20% = lack of ability to bind. It is filed as binding, mammalian. The protocol:
as §1, §2, §3, §4, §5

As for `CC(C)C[C@H](NC(=O)[C@@H](N)CC(C)C)C(=O)N[C@@H](Cc1ccccc1)C(=O)O` [compound 8, H-Leu-Leu-Phe-OH] (H-Leu-Leu-Phe-OH), at 20Si (immunoproteasome), the “Selectivity of binding 20Si vs 20Sc, in words (text summary of Table 4)” value (“Selectivity of binding 20Si vs 20Sc” for short) is given as “selective inhibition of 20Si” and the “Ability to bind 20Si” value is recorded as “+ (+, bound)”. For the same compound, on chymotrypsin, the IC50 – broadly, the point on the concentration scale where inhibition reaches its midpoint – came out at 152 ± 12 µM. The same compound displayed an IC50 in the test with trypsin of 79 ± 6 µM. Further, at 20Si, the “Found 20Si” value is 2.88 ± 0.44 µg/mL and the Recovery is listed as 103%. In test [1], the “Ability to bind 20Sc” value is “– (−, lack of bonding)”.

Consider `CC(C)C[C@H](NC(=O)[C@H](Cc1ccccc1)NC(=O)[C@@H](N)CC(C)C)C(=O)O` [compound 10, H-Leu-Phe-Leu-OH] (H-Leu-Phe-Leu-OH), for which, on 20Si (immunoproteasome), the “Selectivity of binding 20Si vs 20Sc” value was “selective inhibition of 20Si” and the “Ability to bind 20Si” value is on record as “+ (+, bound)”. For the same compound, the IC50 on chymotrypsin amounted to 1830 ± 150 µM. In addition, half-maximal inhibition in the test with trypsin (IC50) was put at 12000 ± 960 µM. Also, at 20Si, the “Found 20Si” value is 2.89 ± 0.60 µg/mL and the Recovery was 103%. Moreover, in test [1], the “Ability to bind 20Sc” value was “– (−, lack of bonding)”.

Take `CC(C)C[C@H](NC(=O)[C@@H](N)Cc1ccccc1)C(=O)N[C@@H](Cc1ccccc1)C(=O)O` [compound 1, H-Phe-Leu-Phe-OH] (H-Phe-Leu-Phe-OH): at 20Si (immunoproteasome), the “Selectivity of binding 20Si vs 20Sc” value is “able to bind both 20Si and 20Sc”; the “Ability to bind 20Si” value is on record as “+ (+, bound)”. At chymotrypsin, this compound yielded an IC50 of 178 ± 14 µM. For the same compound, the “Ability to bind 20Sc” value in test [1] is recorded as “+ (+, bound)”.

On to `CC(C)C[C@H](NC(=O)[C@H](CC(C)C)NC(=O)[C@@H](N)Cc1ccccc1)C(=O)O` [compound 5, H-Phe-Leu–Leu-OH] (H-Phe-Leu-Leu-OH), for which, at 20Si (immunoproteasome), the “Selectivity of binding 20Si vs 20Sc” value is recorded as “selective inhibition of 20Si” and the “Ability to bind 20Si” value is “+ (+, bound)”. Also, the IC50 on chymotrypsin was 184 ± 14 µM. At 20Si, the “Found 20Si” value amounted to 2.97 ± 0.40 µg/mL and the Recovery is given as 106%. Moreover, the “Ability to bind 20Sc” value in test [1] is “– (−, lack of bonding)”.

With `N[C@@H](Cc1ccccc1)C(=O)N[C@@H](Cc1ccccc1)C(=O)O` [compound 9, H-Phe-Phe-OH] (H-Phe-Phe-OH), on 20Si (immunoproteasome), the “Selectivity of binding 20Si vs 20Sc” value was “selectivity to 20Sc” and the “Ability to bind 20Si” value is given as “– (−, lack of bonding)”. The same compound had an IC50 on chymotrypsin of 141 ± 11 µM. Further, the “Ability to bind 20Sc” value in test [1] is on record as “+ (+, bound)”.

`CC(C)C[C@H](N)C(=O)N[C@@H](Cc1ccccc1)C(=O)N[C@@H](Cc1ccccc1)C(=O)O` [compound 4, H-Leu-Phe–Phe-OH] (H-Leu-Phe-Phe-OH): on 20Si (immunoproteasome), the “Selectivity of binding 20Si vs 20Sc” value is on record as “does not capture any form of 20S” and the “Ability to bind 20Si” value is “– (−, lack of bonding)”. The IC50 against chymotrypsin is 184 ± 14 µM. The “Ability to bind 20Sc” value in test [1] is recorded as “– (−, lack of bonding)”.

As for `CC(C)C[C@H](NC(=O)[C@H](Cc1ccccc1)NC(=O)[C@@H](N)Cc1ccccc1)C(=O)O` [compound 6, H-Phe-Phe-Leu-OH] (H-Phe-Phe-Leu-OH), on 20Si (immunoproteasome), the “Selectivity of binding 20Si vs 20Sc” value is “selectivity to 20Sc” and the “Ability to bind 20Si” value is on record as “– (−, lack of bonding)”. This compound also came in with an IC50 against chymotrypsin of 174 ± 13 µM. For the same compound, the “Ability to bind 20Sc” value in test [1] is recorded as “+ (+, bound)”.

`N[C@@H](Cc1ccccc1)C(=O)N[C@@H](CCc1ccccc1)C(=O)N[C@@H](Cc1ccccc1)C(=O)O` [compound 7, H-Phe-hPhe-Phe-OH] (H-Phe-[hPhe]-Phe-OH): the “Selectivity of binding 20Si vs 20Sc” value on 20Si (immunoproteasome) is “able to bind both 20Si and 20Sc”. In addition, the “Ability to bind 20Si” value on 20Si (immunoproteasome) is “+ (+, bound)”. For the same compound, the IC50 against chymotrypsin amounted to 185 ± 14 µM; in the test on trypsin, 44 ± 3 µM. In addition, the “Ability to bind 20Sc” value in test [1] is listed as “+ (+, bound)”.

On to `N[C@@H](Cc1ccccc1)C(=O)N[C@@H](Cc1ccccc1)C(=O)N[C@@H](Cc1ccccc1)C(=O)O` [compound 2, H-Phe-Phe–Phe-OH] (H-Phe-Phe-Phe-OH), for which, at 20Si (immunoproteasome), the “Selectivity of binding 20Si vs 20Sc” value was “able to bind both 20Si and 20Sc”; the “Ability to bind 20Si” value was “+ (+, bound)”. For the same compound, the IC50 on chymotrypsin was 185 ± 14 µM. Moreover, the “Ability to bind 20Sc” value in test [1] is recorded as “+ (+, bound)”.

Take `C[C@H](NC(=O)[C@@H](N)Cc1ccccc1)C(=O)N[C@@H](Cc1ccccc1)C(=O)O` [compound 3, H-Phe-Ala-Phe-OH] (H-Phe-Ala-Phe-OH): at 20Si (immunoproteasome), the “Selectivity of binding 20Si vs 20Sc” value was “able to bind both 20Si and 20Sc”; the “Ability to bind 20Si” value is listed as “+ (+, bound)”. Moreover, half-maximal inhibition on chymotrypsin (IC50) was put at 187 ± 14 µM. In addition, in test [1], the “Ability to bind 20Sc” value is reported as “+ (+, bound)”.

Take `CCCC[C@H](NC(=O)[C@H](CC(C)C)NC(=O)[C@@H](N)Cc1ccccc1)C(=O)O` [compound 11, H-Phe-Leu-nLeu-OH] (H-Phe-Leu-[Nle]-OH): at 20Si (immunoproteasome), the “Selectivity of binding 20Si vs 20Sc” value is reported as “selective inhibition of 20Si” and the “Ability to bind 20Si” value is given as “+ (+, bound)”. Also, the IC50 against chymotrypsin is 1920 ± 150 µM. The same compound had an IC50 in the test on trypsin of 18000 ± 1440 µM. At 20Si, the “Found 20Si” value worked out at 2.99 ± 0.47 µg/mL and the Recovery is given as 107%. Besides, the “Ability to bind 20Sc” value in test [1] is on record as “– (−, lack of bonding)”.
